According to the NIST ThermoML archive (doi:10.1021/acs.jced.8b00229):

Details: Liquid, Vibrating tube method

C=CCCCCC [1-heptene]
Details	mass density [kg/m3]
283.52 K, 15000 kPa	718.3
283.52 K, 20000 kPa	722.2
283.52 K, 25000 kPa	725.9
283.52 K, 30000 kPa	729.4
283.52 K, 35000 kPa	732.9
283.52 K, 40000 kPa	736.1
283.52 K, 55000 kPa	745.3
283.53 K, 100 kPa	705.5
283.53 K, 500 kPa	705.9
283.53 K, 1000 kPa	706.4
283.53 K, 3000 kPa	708.2
283.53 K, 5000 kPa	710
283.53 K, 10000 kPa	714.3
283.53 K, 45000 kPa	739.3
283.53 K, 50000 kPa	742.4
283.53 K, 60000 kPa	748.2
283.53 K, 80000 kPa	759
283.53 K, 90000 kPa	763.9
283.54 K, 70000 kPa	753.8
283.54 K, 100000 kPa	768.7
293.45 K, 100 kPa	697
293.45 K, 500 kPa	697.4
293.45 K, 1000 kPa	697.9
293.45 K, 5000 kPa	701.8
293.45 K, 20000 kPa	714.8
293.45 K, 25000 kPa	718.7
293.45 K, 30000 kPa	722.4
293.45 K, 35000 kPa	726
293.45 K, 55000 kPa	739
293.45 K, 60000 kPa	742
293.45 K, 70000 kPa	747.8
293.45 K, 80000 kPa	753.2
293.45 K, 90000 kPa	758.3
293.45 K, 100000 kPa	763.1
293.46 K, 3000 kPa	699.9
293.46 K, 10000 kPa	706.4
293.46 K, 15000 kPa	710.7
293.46 K, 40000 kPa	729.4
293.46 K, 45000 kPa	732.8
293.46 K, 50000 kPa	736
303.37 K, 100 kPa	688.4
303.37 K, 500 kPa	688.9
303.37 K, 55000 kPa	732.8
303.37 K, 100000 kPa	757.7
303.38 K, 1000 kPa	689.5
303.38 K, 3000 kPa	691.6
303.38 K, 5000 kPa	693.6
303.38 K, 10000 kPa	698.5
303.38 K, 15000 kPa	703.1
303.38 K, 20000 kPa	707.4
303.38 K, 25000 kPa	711.5
303.38 K, 30000 kPa	715.4
303.38 K, 35000 kPa	719.2
303.38 K, 40000 kPa	722.8
303.38 K, 45000 kPa	726.2
303.38 K, 50000 kPa	729.5
303.38 K, 60000 kPa	735.9
303.38 K, 70000 kPa	741.8
303.38 K, 80000 kPa	747.4
303.38 K, 90000 kPa	752.6
313.29 K, 100 kPa	680.6
313.3 K, 500 kPa	681.1
313.3 K, 5000 kPa	686.2
313.3 K, 20000 kPa	700.9
313.3 K, 25000 kPa	705.2
313.3 K, 30000 kPa	709.3
313.3 K, 35000 kPa	713.3
313.3 K, 40000 kPa	717
313.3 K, 45000 kPa	720.6
313.3 K, 50000 kPa	724
313.3 K, 55000 kPa	727.4
313.3 K, 60000 kPa	730.6
313.3 K, 70000 kPa	736.8
313.3 K, 80000 kPa	742.6
313.3 K, 90000 kPa	748
313.3 K, 100000 kPa	753.1
313.31 K, 1000 kPa	681.8
313.31 K, 3000 kPa	684
313.31 K, 10000 kPa	691.3
313.31 K, 15000 kPa	696.3
323.18 K, 100 kPa	670.5
323.18 K, 500 kPa	671
323.18 K, 1000 kPa	671.6
323.18 K, 3000 kPa	674.1
323.18 K, 10000 kPa	682
323.18 K, 25000 kPa	696.6
323.18 K, 30000 kPa	700.9
323.18 K, 35000 kPa	705
323.18 K, 40000 kPa	708.9
323.18 K, 45000 kPa	712.7
323.18 K, 50000 kPa	716.3
323.18 K, 55000 kPa	719.7
323.18 K, 60000 kPa	723.1
323.18 K, 70000 kPa	729.6
323.18 K, 80000 kPa	735.5
323.19 K, 5000 kPa	676.4
323.19 K, 15000 kPa	687.1
323.19 K, 20000 kPa	692
323.19 K, 90000 kPa	741.1
323.19 K, 100000 kPa	746.4
333.04 K, 100 kPa	661.5
333.04 K, 500 kPa	662
333.04 K, 1000 kPa	662.7
333.05 K, 3000 kPa	665.3
333.05 K, 5000 kPa	667.9
333.05 K, 10000 kPa	673.8
333.05 K, 15000 kPa	679.3
333.05 K, 20000 kPa	684.5
333.05 K, 25000 kPa	689.3
333.05 K, 30000 kPa	693.8
333.05 K, 35000 kPa	698.1
333.05 K, 40000 kPa	702.2
333.05 K, 45000 kPa	706.2
333.05 K, 50000 kPa	709.9
333.05 K, 55000 kPa	713.5
333.05 K, 60000 kPa	717
333.05 K, 70000 kPa	723.7
333.05 K, 80000 kPa	729.9
333.05 K, 90000 kPa	735.7
333.05 K, 100000 kPa	741.1
342.91 K, 100 kPa	652.7
342.91 K, 500 kPa	653.3
342.91 K, 1000 kPa	654
342.91 K, 3000 kPa	656.9
342.91 K, 15000 kPa	671.8
342.91 K, 30000 kPa	687.1
342.91 K, 35000 kPa	691.7
342.92 K, 5000 kPa	659.6
342.92 K, 10000 kPa	666
342.92 K, 20000 kPa	677.4
342.92 K, 25000 kPa	682.4
342.92 K, 40000 kPa	696
342.92 K, 45000 kPa	700.1
342.92 K, 50000 kPa	703.9
342.92 K, 55000 kPa	707.7
342.92 K, 60000 kPa	711.3
342.92 K, 70000 kPa	718.3
342.92 K, 80000 kPa	724.6
342.92 K, 90000 kPa	730.6
342.92 K, 100000 kPa	736.2
352.8 K, 100 kPa	644.3
352.8 K, 500 kPa	644.9
352.8 K, 40000 kPa	690
352.8 K, 45000 kPa	694.3
352.8 K, 50000 kPa	698.4
352.8 K, 70000 kPa	713.2
352.8 K, 80000 kPa	719.7
352.8 K, 90000 kPa	725.9
352.8 K, 100000 kPa	731.7
352.81 K, 1000 kPa	645.7
352.81 K, 3000 kPa	648.8
352.81 K, 5000 kPa	651.6
352.81 K, 10000 kPa	658.4
352.81 K, 15000 kPa	664.7
352.81 K, 20000 kPa	670.5
352.81 K, 25000 kPa	675.8
352.81 K, 30000 kPa	680.9
352.81 K, 35000 kPa	685.6
352.81 K, 55000 kPa	702.3
352.81 K, 60000 kPa	706
362.68 K, 100 kPa	633.6
362.68 K, 500 kPa	634.3
362.68 K, 100000 kPa	725.7
362.69 K, 1000 kPa	635
362.69 K, 3000 kPa	638.5
362.69 K, 5000 kPa	641.7
362.69 K, 20000 kPa	661.9
362.69 K, 30000 kPa	672.8
362.69 K, 35000 kPa	677.8
362.69 K, 40000 kPa	682.5
362.69 K, 45000 kPa	687
362.69 K, 50000 kPa	691.2
362.69 K, 55000 kPa	695.2
362.69 K, 60000 kPa	699.1
362.69 K, 70000 kPa	706.6
362.69 K, 80000 kPa	713.4
362.69 K, 90000 kPa	719.7
362.7 K, 10000 kPa	649.1
362.7 K, 15000 kPa	655.8
362.7 K, 25000 kPa	667.6
